Laboratory results as given in patent US10285983B2, “3-(1H-pyrrolo[2,3-B]pyridin-2-yl)-1H-pyrazolo[3,4-B] pyridines and therapeutic uses thereof” (Samumed, LLC, priority 2015, dated 2019).

Tests used:
Type in all cases: cell-based
[1] = tested on: IL-6 (THP-1 human monocyte cell line); assay: IL-6 inhibition in LPS-stimulated THP-1 cells (HTRF); conditions: LPS 500 ng/mL, 22 hours, IL6 HTRF
Protocol: Human monocyte cell line (THP-1 cells; Catalog # TIB-202, ATCC, Manassas, Va.) were cultured in Roswell Park Memorial Institute (RPMI) 1640 Medium (Catalog #21870-100, Buffalo, N.Y.) with 1% L-glutamine, 1% HEPES, 1% Sodium Pyruvate, 2% Sodium Bicarbonate supplemented with 100 units/mL penicillin, 50 μg/mL streptomycin, 2-mercaptoethanol (0.05 mM) [basal medium] and 10% fetal bovine serum (Catalog #16140089, Life Technologies, Carlsbad, Calif.) at 37° C. and 5% CO2.
THP-1 cells were cultured in basal media with 1% FBS for 24 hours before the start of the assay. Each compound was dissolved in DMSO as a 10 mM stock and used to prepare compound source plates. Serial dilution (1:3, 10-point dose-response curves starting from […]) and compound transfer was performed using the ECHO 550 (Labcyte, Sunnyvale, Calif.) into 384-well white low volume assay plates (Greiner Bio-One) with appropriate DMSO backfill for a final DMSO concentration of 0.1%. THP-1 cells were plated at 5000 cells/well in the 384-well plates and incubated at 37° C. for 2 h. 500 ng/mL of LPS was added after 2 hours and cells were incubated for another 22 hours at 37° C. Plates were spun in a centrifuge for 1 minute at 10,000 rpm and a mixture of anti-IL6 XL665, and anti-IL6 Cryptate diluted in reconstitution buffer (Cisbio Inc.) was added to each well. Following incubation for 3 hrs at room temperature, Homogeneous Time-Resolved Fluorescence (HTRF) was measured using the Envision (Perkin Elmer) at 665 nm and […]. The ratio of fluorescence at 665 nm to 620 nm was used as a readout for IL6 quantification. All samples were processed in duplicate. Readings were normalized to DMSO treated cells and normalized activities were utilized for EC50 calculations using the dose-response log (inhibitor) vs. response—variable slope (four parameters) nonlinear regression feature available in GraphPad Prism 5.0 (or Dotmatics). For EC50 of >10 μM, the percent inhibition at 10 μM is provided.

[2] = tested on: primary human fibroblasts derived from IPF patients (LL29 cells); assay: Inhibition of fibrotic process, αSMA staining in TGF-β1 treated LL29 fibroblasts; conditions: Fibroblast, 96 h, TGF-β1 20 ng/mL, 4 days; for EC50: % αSMA positive cells
Source text: Representative compounds were screened using primary human fibroblasts (derived from IPF patients) treated with TGF-β1 to determine their ability to inhibit the fibrotic process.
Primary human fibroblasts derived from IPF patients (LL29 cells) [^1Xiaoqiu Liu, et. al., “Fibrotic Lung Fibroblasts Show Blunted Inhibition by cAMP Due to Deficient cAMP Response Element-Binding Protein Phosphorylation”, Journal of Pharmacology and Experimental Therapeutics (2005), 315(2), 678-687; ^2Watts, K. L., et. al., “RhoA signaling modulates cyclin D1 expression in human lung fibroblasts; implications for idiopathic pulmonary fibrosis”, Respiratory Research (2006), 7(1), 88] were obtained from American Type Culture Collection (ATCC) and expanded in F12 medium supplemented with 15% Fetal Bovine Serum and Penicillin/Streptomycin.
Each compound was dissolved in DMSO as a 10 mM stock and used to prepare compound source plates. Serial dilution (1:2, 11-point dose-response curves from […] to […]) and compound transfer was performed using the ECHO 550 (Labcyte, Sunnyvale, Calif.) into 384-well clear bottom assay plates (Greiner Bio-One) with appropriate DMSO backfill for a final DMSO concentration of 0.1%. LL29 cells are plated at 1,500 cells/well in 80 μL/well F12 medium supplemented with 1% Fetal Bovine Serum. One hour after addition of the cells, TGF-β1 (Peprotech; 20 ng/mL) was added to the plates to induce fibrosis (ref. 1 and 2 above). Wells treated with TGF-β1 and containing DMSO were used as controls. Cells were incubated at 37° C. and 5% CO2 for 4 days. Following incubation for 4 days, SYTOX green nucleic acid stain (Life Technologies [Thermo Fisher Scientific]) was added to the wells at a final concentration of 1 μM and incubated at room temperature for 30 min. Cells were then fixed using 4% formaldehyde (Electron Microscopy Sciences), washed 3 times with PBS followed by blocking and permeabilization using 3% Bovine Serum Albumin (BSA; Sigma) and 0.3% Triton X-100 (Sigma) in PBS. Cells were then stained with antibody specific to α-smooth muscle actin (αSMA; Abcam) (ref. 1 and 2 above) in 3% Bovine Serum Albumin (BSA; Sigma) and 0.3% Triton X-100 (Sigma) in PBS, and incubated overnight at 4° C. Cells were then washed 3 times with PBS, followed by incubation with Alexa Flor-647 conjugated secondary antibody (Life Technologies [Thermo Fisher Scientific]) and DAPI at room temperature for 1 hour. Cells were then washed 3 times with PBS and plates were sealed for imaging. αSMA staining was imaged by excitation at 630 nm and emission at 665 nm and quantified using the Compartmental Analysis program on the CellInsight CX5 (Thermo Scientific). Dead or apoptotic cells were excluded from analysis based on positive SYTOX green staining. % of total cells positive for αSMA were counted in each well and normalized to the average of 11 wells treated with TGF-β1 on the same plate using Dotmatics' Studies Software. The normalized averages (fold change over untreated) of 3 replicate wells for each compound concentration were used to create dose-responses curves and EC50 values were calculated using non-linear regression curve fit in the Dotmatics' Studies Software. For EC50 of >10 μM, the percent inhibition at 10 μM is provided.

SW480 colon cancer cells = assay: Cell viability assay (CellTiter-Blue); conditions: Homo sapiens, 96 h, four days; for inhibition at 10 µM: given for EC50 >10 μM, read-out: percent inhibition at 10 μM
Protocol: Representative compounds were screened using the following assay procedure to assess the effect on cell viability as described below.
Each compound was dissolved in DMSO as a 10 mM stock and used to prepare compound source plates. Serial dilution (1:3, 8-point dose-response curves from 10 μM to 0.0045 μM) and compound transfer was performed using the ECHO 550 (Labcyte, Sunnyvale, Calif.) into 96-well clear bottom, black-walled plates (Corning-Costar).
Approximately 2×10^3 SW480 colon cancer cells were seeded into each well and allowed to incubate in the presence or absence of compound for four days at 37° C./5% CO2. Eight replicates of DMSO-treated cells served as controls and cells treated with compound were performed in duplicate.
After incubation, 20 μL of CellTiter-Blue (Promega) was added to each well allowed to incubate for approximately 3 hours. This reagent was a buffered solution which contains resazurin, metabolically active cells were able to reduce rezarurin (blue) into resorufin (pink) which was highly fluorescent. This measured fluorescence was used as a readout for cell viability.
After incubation, the plates were read at Ex 560 nm Em 590 nm (Cytation 3, BioTek). Dose-response curves were generated and EC50 concentration values were calculated using non-linear regression curve fit in the GraphPad Prism (San Diego, Calif.) or Dotmatics' Studies Software (Bishops Stortford, UK). For EC50 of >10 μM, the percent inhibition at 10 μM is provided.

[3] = tested on: Wnt activity (Sp5-Luc reporter, SW480 colon carcinoma cells); assay: Wnt activity screening assay, Sp5-Luc reporter gene in SW480 cells; conditions: Homo sapiens; for inhibition at 10 µM: given for EC50 >10 μM, read-out: percent inhibition at 10 μM; for EC50: overnight incubation
Source text: The screening assay for Wnt activity is described as follows. Reporter cell lines can be generated by stably transducing cancer cell lines (e.g., colon cancer) or primary cells (e.g., IEC-6 intestinal cells) with a lentiviral construct that includes a Wnt-responsive promoter driving expression of the firefly luciferase gene.
SW480 colon carcinoma cells were transduced with a lentiviral vector expressing luciferase with a human Sp5 promoter consisting of a sequence of eight TCF/LEF binding sites. SW480 cells stably expressing the Sp5-Luc reporter gene and a hygromycin resistance gene were selected by treatment with 150 μg/mL of hygromycin for 7 days. These stably transduced SW480 cells were expanded in cell culture and used for all further screening activities. Each compound was dissolved in DMSO as a 10 mM stock and used to prepare compound source plates. Serial dilution (1:3, 10-point dose-response curves starting from 10 μM) and compound transfer was performed using the ECHO 550 (Labcyte, Sunnyvale, Calif.) into 384-well white solid bottom assay plates (Greiner Bio-One) with appropriate DMSO backfill for a final DMSO concentration of 0.1%. For Sp5-Luc reporter gene assays, the cells were plated at 4,000 cells/well in 384-well plates with medium containing 1% fetal bovine serum and incubated overnight at 37° C. and 5% CO2. Following incubation, 20 μl of BrightGlo luminescence reagent (Promega) was added to each well of the 384-well assay plates. The plates were placed on an orbital shaker for 2 min and then luminescence was quantified using the Envision (Perkin Elmer) plate reader. Readings were normalized to DMSO only treated cells, and normalized activities were utilized for EC50 calculations using the dose-response log (inhibitor) vs. response—variable slope (four parameters) nonlinear regression feature available in GraphPad Prism 5.0 (or Dotmatics). For EC50 of >10 μM, the percent inhibition at 10 μM is provided.

## Fc1cccc(-c2ccnc3[nH]c(-c4n[nH]c5ncc(-c6cncc(CNCc7ccccc7)c6)cc45)cc23)c1 [Compound 24, N-Benzyl-1-(5-(3-(4-(3-fluorophenyl)-1H-pyrrolo[2,3-b]pyridin-2-yl)-1H-pyrazolo[3,4-b]pyridin-5-yl)pyridin-3-yl)methanamine]
[1]
  EC50: 4.16 µM
[2]
  EC50: 1.05 µM
SW480 colon cancer cells
  EC50: 2.45 µM
[3]
  inhibition at 10 µM: 25.8%
  EC50: > 10 µM

## c1cc(N2CCCCC2)c2cc(-c3n[nH]c4ncc(C5CCNCC5)cc34)[nH]c2n1 [Compound 601, 3-(4-(Piperidin-1-yl)-1H-pyrrolo[2,3-b]pyridin-2-yl)-5-(piperidin-4-yl)-1H-pyrazolo[3,4-b]pyridine]
[1]
  EC50: 3.89 µM
[2]
  EC50: 9.66 µM
SW480 colon cancer cells
  EC50: 5.38 µM
[3]
  inhibition at 10 µM: 36.6%
  EC50: > 10 µM

## CC(C)(C)C(=O)Nc1cncc(-c2cnc3[nH]nc(-c4cc5c(-c6ccc(F)cc6)ccnc5[nH]4)c3c2)c1 [Compound 36, N-(5-(3-(4-(4-Fluorophenyl)-1H-pyrrolo[2,3-b]pyridin-2-yl)-1H-pyrazolo [3,4-b]pyridin-5-yl)pyridin-3-yl)pivalamide]
[2]
  EC50: > 10 µM
[2]; given for EC50 >10 μM, read-out: percent inhibition at 10 μM
  inhibition at 10 µM: 33.9%
SW480 colon cancer cells
  EC50: > 10 µM
  inhibition at 10 µM: 11.9%
[3]
  inhibition at 10 µM: 12.7%
  EC50: > 10 µM

## O=C(Nc1cncc(-c2cnc3[nH]nc(-c4cc5c(N6CCCCC6)ccnc5[nH]4)c3c2)c1)C1CC1 [Compound 188, N-(5-(3-(4-(Piperidin-1-yl)-1H-pyrrolo[2,3-b]pyridin-2-yl)-1H-pyrazolo[3,4-b]pyridin-5-yl)pyridin-3-yl)cyclopropanecarboxamide]
[1]
  EC50: 0.348 µM
[2]
  EC50: 1.79 µM
SW480 colon cancer cells
  EC50: > 10 µM
  inhibition at 10 µM: 40.8%
[3]
  EC50: 3.31 µM
